Reference: publication PMC10381909, “Secondary Metabolites from the Cultures of Medicinal Mushroom Vanderbylia robiniophila and Their Tyrosinase Inhibitory Activities” (Journal of Fungi, 2023)

How the values were obtained:
Aβ1–42 = system: Aβ1–42; set-up: method as in PMID 31520649; conditions: pair of enantiomeric compounds from corn silk; cited from earlier work
HeLa cells = system: HeLa cells; set-up: method as in PMID 21747753, PMID 21673896, PMID 31671793; conditions: obtained from marine-derived fungi; cited from earlier work
tyrosinase = tyrosinase (Agaricus bisporus, UniProt C7FF04); assay: Enzyme kinetic analysis (V-S curve, Lineweaver–Burk plot, secondary replot); assay type: biochemical
Chain of tyrosinase (C7FF04 1-392): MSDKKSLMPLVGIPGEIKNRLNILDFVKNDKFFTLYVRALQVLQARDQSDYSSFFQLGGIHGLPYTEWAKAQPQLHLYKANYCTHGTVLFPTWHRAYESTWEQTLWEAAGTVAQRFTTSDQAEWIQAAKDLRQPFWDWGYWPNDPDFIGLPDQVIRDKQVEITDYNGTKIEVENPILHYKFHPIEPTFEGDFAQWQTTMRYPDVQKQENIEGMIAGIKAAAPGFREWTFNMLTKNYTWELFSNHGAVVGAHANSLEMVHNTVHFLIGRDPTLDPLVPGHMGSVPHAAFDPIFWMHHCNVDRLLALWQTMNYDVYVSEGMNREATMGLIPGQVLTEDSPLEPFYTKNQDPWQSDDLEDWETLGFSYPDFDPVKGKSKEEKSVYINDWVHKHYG
Experimental: The inhibition type was measured by the reaction rate–substrate concentration curve and the Lineweaver–Burk plot. L-tyrosine solutions were diluted to different concentrations (5 mM, 7.5 mM, 9 mM, 12 mM, 15 mM) as the substate. The inhibition constant was determined by the second plot of the y-intercept versus the concentration of the inhibitor. The values of Kis were calculated from the following formula: y-intercept=1/Vm1+[I]/Kis
The inhibition constant Kis was obtained from the plot of the y-intercept versus the concentration of 10, which was calculated to be 0.04 mM (Figure 5C).

Structure (SMILES)	anti-Aβ1–42 aggregation activity (Aβ1–42)	cytotoxic activity against HeLa cells (HeLa cells)	inhibition type on tyrosinase (tyrosinase; L-tyrosine 5–15 mM, Lineweaver–Burk plot)	change of Km and Vm with increasing inhibitor concentration (tyrosinase; ratio Km/Vm remained unchanged)
COC(=O)CCCCCCC[C@H]1C=CC(=O)O1 [Compound 9, Cornilkone C]	weak	–	–	–
COC(=O)C(=O)c1c[nH]c2ccccc12 [Compound 10, (1H-indol-3-yl) oxoacetic acid methyl ester]	–	weak	uncompetitive inhibitor	decreased
